Read-outs that look alike come from different tables or passages of the source.
Columns and labels:
[1] = Measurement of transferability into brain and clearance; conditions: rats, intravenous injection (tail vein); for Radioactive accumulation per unit weight of brain, after 2 min.: 2 min after injection; for Radioactive accumulation per unit weight of brain, after 5 min.: 5 min after injection; for Radioactive accumulation per unit weight of brain, after 30 min.: 30 min after injection; for Radioactive accumulation per unit weight of brain, after 60 min.: 60 min after injection
Description: The rats were sacrificed by bleeding from abdominal artery, and brains were removed and subjected to measurement of mass of brains and further subjected to measurement of radioactivity (hereinafter referred to as A in this Example) with a single channel analyzer (detector type: SP-20 manufactured by OHYO KOKEN KOGYO Co., Ltd.) 2, 5, 30 and 60 minutes after the injection. Also, radioactivity (hereinafter referred to as B in this Example) of the remain of the whole body was measured in the same manner as above.
The same procedures as above were performed to calculate radioactive accumulation per unit weight of brain (% ID/g) at the respective time points (Comparative Example 2).
Three animals were used for Example 15, Example 16 and Reference Example 2 at the respective time points.

[2] = Measurement of partition coefficient based on the octanol extraction method; conditions: octanol / 10 mmol/L phosphate buffer (pH 7.4)
Description: To 2 mL of octanol, 10 μL each of the prepared sample solutions was respectively added, and 2 mL of a 10 mmol/L phosphate buffer (pH 7.4) was further added, followed by stirring for 30 seconds. After the mixture was centrifuged with a low-speed centrifuge (2000 rpm×60 min.), the octanol layer and the water layer were sampled each in an amount of 1 mL, and subjected to measurement of radioactivity count with an autowell gamma system (Type: ARC-301B, manufactured by Aloka). Using the obtained radioactivity count, logPoctanol was calculated in accordance with the equation (2).

[3] = tested on: intracerebral amyloid; experiment: Confirmation of imaging of amyloid in brain (autoradiogram of brain slice, amyloid injected into amygdaloid nucleus); type: in vivo, male Wistar rat; conditions: 60 minutes after intravenous injection, control side
Description: (§1) (1) Aβ1-42 (manufactured by Wako) was dissolved in phosphate buffer (pH 7.4) and shaken at 37° C. for 72 hours, to obtain a 1 mg/mL suspension of aggregated Aβ (hereinafter referred to as amyloid suspension in this Example).
(§2) (2) 2.5 μL (corresponding to 25 μg) of the amyloid suspension was injected under thiopental anesthesia into an amygdaloid nucleus on one side of a male Wistar rat (7-week old). As a control, 2.5 μL of a phosphate buffered physiological saline solution (pH 7.4) was injected into an amygdaloid nucleus on the other side of the rat. The rats were examined 1 day after the injection of the amyloid suspension and the phosphate buffered physiological saline solution (pH 7.4).
(§3) This sample solution was injected under thiopental anesthesia into the rat through the tail vein (dosage: 0.5 mL, dosed radioactivity: 16 MBq equivalent).
(§4) (4) Brain was removed 60 minutes after the injection to prepare a brain slice of 10 μm in thickness with a microtome (type: CM3050S, manufactured by LEICA). The brain slice was exposed to an imaging plate for 20 hours, and then image analysis was carried out by use of a Bio-imaging Analyzer (type: BAS-2500; manufactured by FUJIFILM Corporation).
(§5) (5) After the completion of the image analysis using the Bio-imaging Analyzer, pathological staining with Thioflavin T was carried out to perform imaging by use of a fluorescence microscope (manufactured by NIKON Corporation; type: TE2000-U model; excitation wavelength: 400-440 nm; detection wavelength: 470 nm).

[4] = target: T1, intracerebral amyloid (Homo sapiens, UniProt P05067); experiment: as above; type: in vivo, male Wistar rat; conditions: 60 minutes after intravenous injection
T1 construct: Aβ1-42 (manufactured by Wako); purchased Wako
Description: as §1, §2, §3, §4, §5

[5] = [125I]-labeled, normal mice; cited from earlier work
[6] = tested on: amyloid; conditions: [125I]-labeled compounds; cited from earlier work
[7] = [11C]-labeled, rats; cited from earlier work
[8] = target: amyloid (aggregated Aβ1-42) (Homo sapiens, UniProt P05067)
From the text: Affinity of the present compounds with amyloid was examined by the following in vitro binding tests.

T1 sequence (P05067 672-713): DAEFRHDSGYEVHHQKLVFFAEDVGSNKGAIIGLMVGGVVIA
Chain of amyloid (aggregated Aβ1-42) (P05067 672-713): as above

SMILES	Radioactive accumulation per unit weight of brain, after 2 min. [1] [% ID/g]	Radioactive accumulation per unit weight of brain, after 5 min. [1] [% ID/g]	Radioactive accumulation per unit weight of brain, after 30 min. [1] [% ID/g]	Radioactive accumulation per unit weight of brain, after 60 min. [1] [% ID/g]	logPoctanol value [2]	Accumulation of radioactivity in the amygdaloid nucleus on the side injected with physiological saline solution [3]	Accumulation of radioactivity in the amygdaloid nucleus on the side injected with amyloid suspension [4]	Clearance from normal tissues [5]	Transfer into brain [5]	further results
Fc1ccc(-c2cn3cc([123I])ccc3n2)cc1	1.00	0.72	0.12	0.05	2.3	no significant accumulation of radioactivity	marked accumulation of radioactivity			
COc1ccc2nc(-c3ccc([123I])cc3)cn2c1	1.26	0.89	0.19	0.09	2.3	no significant accumulation of radioactivity	marked accumulation of radioactivity			
COc1ccc(-c2cn3cc([123I])ccc3n2)cc1	1.04	0.72	0.12	0.04	1.7	no significant accumulation of radioactivity	marked accumulation of radioactivity			
CN(C)c1ccc(-c2nc3ccc(I)cc3o2)cc1 [IBOX, 6-iodo-2-[4′-(N,N-dimethylamino)phenyl]benzoxazole]								insufficient in clearance from normal tissues	transferred into brain 2 minutes after administration	
CN(C)c1ccc(-c2cn3cc(I)ccc3n2)cc1 [IMPY, 6-iodo-2-[4′-(N,N-dimethylamino)phenyl]imidazo[1,2-a]pyridine]										Clearance from normal tissues [6]: rapid clearance from normal tissues; Transfer to brain and accumulation at amyloid [6]: transferring to brain and accumulating at amyloid after administration
CNc1ccc(/C=C/c2ccc(O)cc2)cc1 [SB-13, (E)-4-methylamino-4′-hydroxystilbene]										Clearance from normal tissues [7]: it cannot be said that the clearance is sufficiently fast
CN(C)c1ccc(-c2nc3ccc(I)cc3s2)cc1 [TZDM, 6-iodo-2-[4′-(N,N-dimethylamino)phenyl]benzothiazole]								insufficient in clearance from normal tissues	transferred into brain 2 minutes after administration	
CN(C)c1ccc(-c2cn3cc([123I])ccc3n2)cc1 [[^123I]-IMPY, reference compound]	1.19	0.97	0.23	0.09	1.9					
COc1ccc2nc(-c3ccc([125I])cc3)cn2c1 [[^125I]-2-(4′-iodophenyl)-6-methoxyimidazo[1,2-a]pyridine]										Binding to amyloid [8]: capable of binding to amyloid; Radioactive count (A−B) specifically binding to amyloid versus amyloid concentration ([8]; amyloid 25, 62.5, 250, 625 and 1000 nmol/L, 22° C., 3 hours): showed a tendency to increase with increment of the concentration of amyloid
CN(C)c1ccc(/C=C/c2ccc(I)cc2)cc1 [m-I-SB, (E)-4-dimethylamino-4′-iodostilbene]								insufficient in clearance from normal tissues	transferred into brain 2 minutes after administration	

Source: patent US20090252680A1, “NOVEL COMPOUND WITH AFFINITY FOR AMYLOID” (NIHON- MEDI-PHYSICS CO., LTD, priority 2006, published 2009)
